Reference: patent publication US20030216479A1, “Novel compositions comprising 2,2-Bis (4-hydroxy-3-methylphenyl) heptane and uses thereof” (priority 2001, published 2003)
≈ marks a conversion by molar mass, not a printed value.

How the values were obtained:
H. pylori = test: MIC antibacterial activity; type: cell-based; conditions: Helicobacter pylori
[1] = system: Staphylococcus epidermidis; test: Wound healing model (FIG. 3); type: in vivo; conditions: mice, topical twice daily from 24 h, sampled 72 h post-infection
Procedure: (§1) FIG. 3. Efficacy of a composition comprising 2,2-Bis(4-hydroxy-3-methylphenyl)heptane in the wound healing model. A defined inoculum of approximately 10^5 CFU of methicillin-sensitive Staphylococcus epidermis in 20 μl culture medium was pipetted into a wound approximately 1 cm^2 created by removal of the epidermis from the shaved backs of mice. After 24 hours, the composition comprising 2,2-Bis(4-hydroxy-3-methylphenyl)heptane, placebo control or positive control ointment was applied twice daily. Approximately, seventy two hours post-infection, the wound was sampled and appropriate dilutions plated on nutritive agars for determination of microbial burden. The number of colony forming units (CFU) of methicillin-sensitive Staphylococcus epidermis per wound is shown.
(§2) The wound healing model, using methods generally known by those skilled in the art, is used to measure the efficacy of topically applied compounds in suitable vehicles against any bacteria, for example, Staphylococcus epidermis, Staphylococcus aureus, Streptococcus pyrogenes, Haemophilus influenzae, or mixtures thereof. By removing several epidermal layers by surgical procedure, a superficial wound of approximately 1 cm^2 was created. About 10 ^5 cfu/20 ul of culture medium of any bacteria, for example, S aureus, was applied to the wound. […]

E. faecalis = test: MIC antibacterial activity; type: cell-based; conditions: Enterococcus faecalis
[2] = system: methicillin-resistant Staphylococcus aureus; test: Wound healing model (FIG. 2); type: in vivo; conditions: mice, topical twice daily from 24 h, sampled 72 h post-infection
Procedure: as §1, with “FIG. 2.” for “FIG. 3.”, “of methicillin-resistant” for “of methicillin-sensitive”, “Staphylococcus aureus” for “Staphylococcus epidermis”
as §2

H. influenzae = test: MIC antibacterial activity; type: cell-based; conditions: Haemophilus influenzae
[3] = system: methicillin-sensitive Staphylococcus aureus; test: Wound healing model (FIG. 1); type: in vivo; conditions: methicillin-susceptible Staphylococcus aureus; mice; topical twice daily from 24 h; sampled 72 h post-infection
Procedure: as §1, with “FIG. 1.” for “FIG. 3.”, “Staphylococcus aureus” for “Staphylococcus epidermis”
as §2

M. smegmatis = test: MIC antibacterial activity; type: cell-based; conditions: Mycolicibacterium smegmatis
S. pneumoniae = test: MIC antibacterial activity; type: cell-based; conditions: Streptococcus pneumoniae
M. catarrhalis = test: MIC antibacterial activity; type: cell-based; conditions: Moraxella catarrhalis
C. diphtheriae = test: MIC antibacterial activity; type: cell-based; conditions: Corynebacterium diphtheriae
S. epidermidis = test: MIC antibacterial activity; type: cell-based; conditions: Staphylococcus epidermidis
S. pyogenes = test: MIC antibacterial activity; type: cell-based; conditions: Streptococcus pyogenes

MIC (H. pylori): 16 µg/mL (≈ 51.2 µM)
melting point: 99 to 101 °C
MIC (E. faecalis): 2 µg/mL (≈ 6.4 µM)
MIC (H. influenzae): 6 µg/mL (≈ 19.2 µM)
MIC (M. smegmatis): 2 µg/mL (≈ 6.4 µM)
MIC (S. pneumoniae): 6 µg/mL (≈ 19.2 µM)
MIC (M. catarrhalis): 2 µg/mL (≈ 6.4 µM)
MIC (C. diphtheriae): 2 µg/mL (≈ 6.4 µM)
MIC (S. epidermidis): 2 µg/mL (≈ 6.4 µM)
MIC (S. pyogenes): 6 µg/mL (≈ 19.2 µM)
SMILES: CCCCCC(C)(c1ccc(O)c(C)c1)c1ccc(O)c(C)c1 [2,2-Bis(4-hydroxy-3-methylphenyl)heptane]
reducing the population levels of pathogenic bacteria (CFU per wound) [1]: efficacious
reducing the population levels of pathogenic bacteria (CFU per wound) [2]: efficacious
reducing the population levels of pathogenic bacteria (CFU per wound) [3]: efficacious
